Experimental data taken from paper PMC3265452 (PLoS Neglected Tropical Diseases, 2012).
Counter-ions that a name gives are not always drawn.

biological target: AaDOP2 (Aedes aegypti, UniProt H6D5H2); assay: AaDOP2 antagonist screen of the LOPAC1280 library (HEK-CRELuc-Aadop2 cells, luminescence); type: cell-based; settings: not given
Sequence (H6D5H2 1-476): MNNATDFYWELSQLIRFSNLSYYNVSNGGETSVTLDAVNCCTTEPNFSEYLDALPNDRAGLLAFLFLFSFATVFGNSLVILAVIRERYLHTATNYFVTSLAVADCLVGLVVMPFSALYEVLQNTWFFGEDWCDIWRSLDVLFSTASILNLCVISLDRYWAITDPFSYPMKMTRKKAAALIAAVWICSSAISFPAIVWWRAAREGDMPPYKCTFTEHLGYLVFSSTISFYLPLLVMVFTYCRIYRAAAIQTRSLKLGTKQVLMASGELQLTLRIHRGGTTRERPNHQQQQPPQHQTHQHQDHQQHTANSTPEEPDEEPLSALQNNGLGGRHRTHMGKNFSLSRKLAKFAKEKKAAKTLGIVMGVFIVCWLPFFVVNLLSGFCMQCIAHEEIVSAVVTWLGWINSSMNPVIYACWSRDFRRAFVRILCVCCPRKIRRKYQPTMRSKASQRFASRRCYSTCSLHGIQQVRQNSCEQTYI

In order of rising “Compound effect (percent receptor signaling in presence of test compound, relative lux units relative to the SCH23390 control)” value:
1. O=C1Nc2ccc(I)cc2/C1=C/c1cc(Br)c(O)c(Br)c1 [Compound 555, GW5074]  25
2. Clc1ccc(C(c2ccc(Cl)cc2)n2cc[n+](CC(OCc3ccc(Cl)cc3Cl)c3ccc(Cl)cc3Cl)c2)cc1 (centres unmarked) [Compound 252, Calmidazolium chloride]  44
3. Cc1ccc(O)c(N=Nc2ccccc2)n1 [Compound 1125, SIB 1757]  46
4. CN1C[C@H](C(=O)N[C@]2(C)O[C@@]3(O)[C@@H]4CCCN4C(=O)[C@H](Cc4ccccc4)N3C2=O)C[C@@H]2c3cccc4[nH]cc(c34)C[C@H]21 [Compound 372, Dihydroergotamine methanesulfonate]  46
5. CCCc1c(-c2ccc(O)cc2)nn(-c2ccc(O)cc2)c1-c1ccc(O)cc1 [Compound 594, 1,3,5-tris(4-hydroxyphenyl)-4-propyl-1H-pyrazole]  73
6. Cc1scc2c1N(C(=O)CN1CCN(C)CC1)c1ccccc1NC2=O [Compound 1225, Telenzepine dihydrochloride]  77
7. O=C1NC(=O)C(c2ccccc2)(c2ccccc2)N1 [Compound 385, Phenytoin sodium]  77
8. N#C/C(=C\c1ccc(O)c(O)c1)C(=O)N1CCc2ccccc21 [Compound 1177, Tyrphostin AG 528]  78
9. Cl.N=C(N)NC(=N)Nc1cccc(Cl)c1 [Compound 339, 1-(m-Chlorophenyl)-biguanide hydrochloride]  83
10. FC(F)(F)c1ccccc1-n1ccnc1 [Compound 1200, 1-[2-(Trifluoromethyl)phenyl]imidazole]  86
11. CN(C(=O)CCCOc1ccc2[nH]c(=O)ccc2c1)C1CCCCC1 [Compound 301, Cilostamide]  88
12. Cc1cccc(C(=O)NCN2CCN(c3ccccc3C#N)CC2)c1.O=C(O)/C=C\C(=O)O [Compound 1025, PD 168,077 maleate]  91
13. OC(CCN1CCCCC1)(c1ccccc1)C1CCCCC1 (centres unmarked) [Compound 1153, Trihexyphenidyl hydrochloride]  92
14. COc1ccc(Cc2nccc3cc(OC)c(OC)cc23)cc1OC [Compound 936, Papaverine hydrochloride]  92
15. O=C(O)C1CCNCC1 [Compound 679, Isonipecotic acid]  94
16. CC1OCC(C[N+](C)(C)C)O1.[I-] (single isomer, unassigned; (+)) [Compound 325, (+)-cis-Dioxolane iodide]  96
17. CN(C(=O)Cc1ccc(Cl)c(Cl)c1)C(CN1CCCC1)c1cccc(OCC(=O)O)c1.Cl (centres unmarked) [Compound 671, ICI 204,448 hydrochloride]  97
18. CO/N=C(\C(=O)N[C@@H]1C(=O)N2C(C(=O)O)=C(CSc3nc(=O)c(=O)[nH]n3C)CS[C@H]12)c1csc(N)n1 [Compound 275, Ceftriaxone sodium]  97
19. CCC(=O)N1CCN(C(=O)c2ccccc2)CC1 [Compound 394, DM 235]  101
20. NCC(O)c1ccc(O)cc1 (racemic) [Compound 894, (±)-Octopamine hydrochloride, reference compound]  104
21. Nc1nc2[nH]c(=O)cnc2c(=O)[nH]1 [Compound 656, Isoxanthopterin]  106
22. CC(C)C[C@H](NC(=O)[C@H](O)[C@H](N)Cc1ccccc1)C(=O)O [Compound 471, Epibestatin hydrochloride]  107
23. C[C@H]1O[C@@H](n2cc(F)c(=O)[nH]c2=O)[C@H](O)[C@@H]1O [Compound 534, 5-fluoro-5'-deoxyuridine]  111
24. O=C(NCC1CCCCN1)c1cc(OCC(F)(F)F)ccc1OCC(F)(F)F (centres unmarked) [Compound 527, Flecainide acetate]  111
25. C[C@]12CC[C@@H]3c4ccc(O)cc4CC[C@H]3[C@@H]1CC[C@@H]2O [Compound 499, beta-Estradiol]  112
26. O=C[C@H](Cl)[C@@H](O)[C@H](O)[C@H](O)CO [Compound 346, 2-Chloro-2-deoxy-D-glucose]  114
27. C[N+]1(C)[C@@H]2C[C@@H](OC(=O)[C@H](CO)c3ccccc3)C[C@H]1[C@@H]1O[C@@H]12 [Compound 1120, (-)-Scopolamine methyl bromide]  114
28. CC(=O)c1ccc(S(=O)(=O)NC(=O)NC2CCCCC2)cc1 [Compound 137, Acetohexamide]  115
29. CCCCC/C=C\C/C=C\C/C=C\C/C=C\CCCC(=O)NCC(=O)O [Compound 32, N-arachidonylglycine]  116

same assay, conditions: 10 µM compound, 300 nM dopamine, 2 hr; hit = compound effect <20

In order of rising “Compound effect (percent receptor signaling in presence of test compound, relative lux units relative to the SCH23390 control)” value:
1. NC(=S)c1ccc[n+]([C@@H]2OC(COP(=O)([O-])OP(=O)(O)OC[C@H]3O[C@@H](n4cnc5c(N)ncnc54)[C@H](OP(=O)(O)O)[C@@H]3O)C(O)C2O)c1 (stereo in doubt) [Compound 1183, Thio-NADP sodium]  84%
2. CCc1cc(Cl)c(OC)c(C(=O)NC[C@@H]2CCCN2CC)c1O.Cl [Compound 505, S-(-)-Eticlopride hydrochloride]  85%
3. CCCN1CCC[C@H](c2cccc(O)c2)C1.Cl [Compound 1003, R(+)-3PPP hydrochloride]  86%
4. CCCCCCCC/C=C\CCCCCCCC(=O)NCCO [Compound 895, N-Oleoylethanolamine]  105%
5. CCCCN1CCC(COC(=O)c2cc(Cl)c(N)c3c2OCCO3)CC1.Cl [Compound 1097, SB 204070 hydrochloride]  122%
6. CC(C)NCC(O)c1ccc(NS(C)(=O)=O)cc1.Cl (racemic) [Compound 1074, (±)-Sotalol hydrochloride]  125%
